Test results as given in US20130122541A1, “MICROORGANISM PRODUCTION OF HIGH-VALUE CHEMICAL PRODUCTS, AND RELATED COMPOSITIONS, METHODS AND SYSTEMS” (The Regents of the University of Colorado, priority 2010, published 2013).
≈ marks a conversion by molar mass, not a printed value. Read-outs that look alike come from different tables or passages of the source.

Assays:
[1] = system: Yeast strains (S288C background); test: microbe, parasite or virus in culture; assay type: cell-based, Saccharomyces cerevisiae; conditions: for MIC: Saccharomyces cerevisiae
Description: The minimum inhibitory concentration (MIC) was determined aerobically in a 96 well-plate format. […] Media supplements were added according to levels reported in the Supplements Table, where specified. Overnight cultures of strains were grown in triplicate in 5 mL SD media with vitamins (Methods in Enzymology vol. 350, page 17 (2002)). A 1% (v/v) inoculum was introduced into a 5 ml culture of SD minimal media without vitamins. After the cells reached mid-exponential phase, the culture was diluted to an OD600 of 0.200. The cells were further diluted 1:5 and a 10 μL aliquot was used to inoculate each well of a 96 well plate (˜10^4 cells per well) to total volume of 100 uL. […] Plates were incubated for 72 hours at 30 C.

[2] = system: Yeast strains (S288C background); test: microbe, parasite or virus in culture; assay type: cell-based, Saccharomyces cerevisiae; conditions: for MIC: Saccharomyces cerevisiae; remark: listed apart in the source
Description: The minimum inhibitory concentration (MIC) was determined anaerobically in a 96 well-plate format. […] A 1% (v/v) inoculum was introduced into a 5 ml culture of SD minimal media without vitamins. After the cells reached mid-exponential phase, the culture was diluted to an OD600 of 0.200. The cells were further diluted 1:5 and a 10 μL aliquot was used to inoculate each well of a 96 well plate (˜10^4 cells per well) to total volume of 100 uL. […] Plates were incubated for 72 hours at 30 C. […] Plates were sealed in biobag anaerobic chambers that contained gas generators for anaerobic conditions and incubated for 72 hours at 30 C.

[3] = system: B. subtilis; test: MIC evaluation of 3-HP, B. subtilis aerobic, M9 media + glutamate, 96 well-plate, 24 h (Common Methods); assay type: cell-based
Description: For MIC evaluations, the final results are expressed in chemical agent concentrations determined by analysis of the stock solution by HPLC (i.e., see Subsection IIIb).
The minimum inhibitory concentration (MIC) was determined aerobically in a 96 well-plate format. […] Media supplements were added according to levels reported in the Supplements Table where specified. Overnight cultures of strains were grown in triplicate in 5 mL LB (with antibiotic where appropriate). A 1% (v/v) inoculum was introduced into a 5 ml culture of M9 minimal media+glutamate.

[4] = system: C. necator (R. eutropha); test: MIC evaluation of 3-HP, C. necator (R. eutropha) aerobic, FGN media, 96 well-plate, 24 h (Common Methods); assay type: cell-based; conditions: for % Increase Over Control: supplements none, vs control, aerobic
Description: For MIC evaluations, the final results are expressed in chemical agent concentrations determined by analysis of the stock solution by HPLC (i.e., see Subsection IIIb). The minimum inhibitory concentration (MIC) was determined aerobically in a 96 well-plate format. […] Media supplements were added according to levels reported in Supplements Table, where specified. Overnight cultures of strains were grown in triplicate in 5 mL LB (with antibiotic where appropriate). […] The cells were further diluted 1:50 and a 10 μL aliquot was used to inoculate each well of a 96 well plate (˜10^4 cells per well) to total volume of 100 uL. […] Plates were incubated for 24 hours at 30 C.

[5] = system: E. coli K12+pSMART-LC-Kan-cynTS; assay type: cell-based; conditions: Escherichia coli, 24 h, read-out: Minimum inhibitory concentration (MIC) of 3-HP for E. coli K12+pSMART-LC-Kan-cynTS in M9 minimal media
Description: Overnight cultures of strains were grown in 5 ml LB (with antibiotic where appropriate) at 37° C. in a shaking incubator. A 1 v/v % was used to inoculate 10 mL of M9 minimal media. After the cells reached mid-exponential phase, the culture was diluted to an OD600 of 0.200. The cells were further diluted 1:20 and a 10 ul aliquot was used to inoculate each well (˜10^4 cells per well). […] The MIC endpoint is the lowest concentration of compound at which there was no visible growth.
Purified plasmid was retransformed into E. coli K12 by standard techniques and MIC measured as described in Example 37.

[6] = strain BSX_0003.0 (pWH1520), M9 + glu + trp + 1 mM Xylose

O=C(O)CCO [3-HP, 3-hydroxypropionic acid]
% Increase Over Control ([1]; S288C, SC media vs SD control, aerobic): 33% | MIC ([1]; read-out: Average MIC Assay Result (g/L 3-HP), S288C, SC media, supplements none, aerobic): 60 g/L (≈ 666 mM) | MIC ([1]; read-out: Average MIC Assay Result (g/L 3-HP), S288C, SD media, supplements none (control), aerobic): 45 g/L (≈ 500 mM) | MIC ([1]; read-out: MIC Assay Result (g/L 3-HP), strain YX-022 (BY4722, pyes2.1-Aro3 pRS425-ILV6), SD, aerobic): 60 g/L (≈ 666 mM) | MIC ([1]; read-out: MIC Assay Result (g/L 3-HP), strain YX-CJR-001 (BY4709, pRS426 EV, control), SD, aerobic): 40 g/L (≈ 444 mM) | MIC ([1]; read-out: MIC Assay Result (g/L 3-HP), strain YX-CJR-002 (BY4709, pYes2.1-spe3), SD, aerobic): 50 g/L (≈ 555 mM) | MIC ([1]; read-out: MIC Assay Result (g/L 3-HP), strain YX-CJR-003 (BY4709, pYes2.1-hom2), SD, aerobic): 47 g/L (≈ 522 mM) | MIC ([1]; read-out: MIC Assay Result (g/L 3-HP), strain YX-CJR-005 (BY4709, pYes2.1-Met6), SD, aerobic): 50 g/L (≈ 555 mM) | MIC ([1]; read-out: MIC Assay Result (g/L 3-HP), strain YX-CJR-006 (BY4709, pYes2.1-Ilv2), SD, aerobic): 57 g/L (≈ 633 mM) | MIC ([1]; read-out: MIC Assay Result (g/L 3-HP), strain YX-CJR-010 (BY4709, pyes2.1-Thr1), SD, aerobic): 60 g/L (≈ 666 mM) | MIC ([1]; read-out: MIC Assay Result (g/L 3-HP), strain YX-CJR-014 (BY4709, pyes2.1-arg2), SD, aerobic): 60 g/L (≈ 666 mM) | MIC ([1]; read-out: MIC Assay Result (g/L 3-HP), strain YX-CJR-017 (BY4709, pyes2.1-Aro7), SD, aerobic): 70 g/L (≈ 777 mM) | % Increase Over Control ([1]; strain YX-022 (pyes2.1-Aro3 pRS425-ILV6) vs control, aerobic): 50% | % Increase Over Control ([1]; strain YX-CJR-002 (pYes2.1-spe3) vs YX-CJR-001, aerobic): 25% | % Increase Over Control ([1]; strain YX-CJR-003 (pYes2.1-hom2) vs YX-CJR-001, aerobic): 17% | % Increase Over Control ([1]; strain YX-CJR-005 (pYes2.1-Met6) vs YX-CJR-001, aerobic): 25% | % Increase Over Control ([1]; strain YX-CJR-006 (pYes2.1-Ilv2) vs YX-CJR-001, aerobic): 42% | % Increase Over Control ([1]; strain YX-CJR-010 (pyes2.1-Thr1) vs YX-CJR-001, aerobic): 50% | % Increase Over Control ([1]; strain YX-CJR-014 (pyes2.1-arg2) vs YX-CJR-001, aerobic): 50% | % Increase Over Control ([1]; strain YX-CJR-017 (pyes2.1-Aro7) vs YX-CJR-001, aerobic): 75% | % Increase Over Control ([2]; S288C, SD media, supplements none (control), anaerobic): 0% | MIC ([2]; read-out: Average MIC Assay Result (g/L 3-HP), S288C, SD media, supplements none (control), anaerobic): 38 g/L (≈ 422 mM) | MIC ([2]; read-out: MIC Assay Result (g/L 3-HP), strain YX-022 (BY4722, pyes2.1-Aro3 pRS425-ILV6), SD, anaerobic): 50 g/L (≈ 555 mM) | MIC ([2]; read-out: MIC Assay Result (g/L 3-HP), strain YX-CJR-001 (BY4709, pRS426 EV, control), SD, anaerobic): 40 g/L (≈ 444 mM) | MIC ([2]; read-out: MIC Assay Result (g/L 3-HP), strain YX-CJR-005 (BY4709, pYes2.1-Met6), SD, anaerobic): 60 g/L (≈ 666 mM) | MIC ([2]; read-out: MIC Assay Result (g/L 3-HP), strain YX-CJR-007 (BY4709, pyes2.1-ILV6), SD, anaerobic): 50 g/L (≈ 555 mM) | MIC ([2]; read-out: MIC Assay Result (g/L 3-HP), strain YX-CJR-008 (BY4709, pyes2.1-ILV1), SD, anaerobic): 60 g/L (≈ 666 mM) | MIC ([2]; read-out: MIC Assay Result (g/L 3-HP), strain YX-CJR-010 (BY4709, pyes2.1-Thr1), SD, anaerobic): 50 g/L (≈ 555 mM) | MIC ([2]; read-out: MIC Assay Result (g/L 3-HP), strain YX-CJR-011 (BY4709, pyes2.1-Ser2), SD, anaerobic): 50 g/L (≈ 555 mM) | MIC ([2]; read-out: MIC Assay Result (g/L 3-HP), strain YX-CJR-013 (BY4709, pyes2.1-ser3), SD, anaerobic): 50 g/L (≈ 555 mM) | MIC ([2]; read-out: MIC Assay Result (g/L 3-HP), strain YX-CJR-014 (BY4709, pyes2.1-arg2), SD, anaerobic): 50 g/L (≈ 555 mM) | MIC ([2]; read-out: MIC Assay Result (g/L 3-HP), strain YX-CJR-015 (BY4709, pyes2.1-RNR1), SD, anaerobic): 50 g/L (≈ 555 mM) | MIC ([2]; read-out: MIC Assay Result (g/L 3-HP), strain YX-CJR-016 (BY4709, pyes2.1-Aro3), SD, anaerobic): 50 g/L (≈ 555 mM) | MIC ([2]; read-out: MIC Assay Result (g/L 3-HP), strain YX-CJR-018 (BY4709, pyes2.1-Tyr1), SD, anaerobic): 50 g/L (≈ 555 mM) | MIC ([2]; read-out: MIC Assay Result (g/L 3-HP), strain YX-CJR-021 (BY4709, pYes2.1-Trp1), SD, anaerobic): 50 g/L (≈ 555 mM) | % Increase Over Control ([2]; strain YX-022 (pyes2.1-Aro3 pRS425-ILV6) vs control, anaerobic): 25% | % Increase Over Control ([2]; strain YX-CJR-005 (pYes2.1-Met6) vs YX-CJR-001, anaerobic): 50% | % Increase Over Control ([2]; strain YX-CJR-007 (pyes2.1-ILV6) vs YX-CJR-001, anaerobic): 25% | % Increase Over Control ([2]; strain YX-CJR-008 (pyes2.1-ILV1) vs YX-CJR-001, anaerobic): 50% | % Increase Over Control ([2]; strain YX-CJR-010 (pyes2.1-Thr1) vs YX-CJR-001, anaerobic): 25% | % Increase Over Control ([2]; strain YX-CJR-011 (pyes2.1-Ser2) vs YX-CJR-001, anaerobic): 25% | % Increase Over Control ([2]; strain YX-CJR-013 (pyes2.1-ser3) vs YX-CJR-001, anaerobic): 25% | % Increase Over Control ([2]; strain YX-CJR-014 (pyes2.1-arg2) vs YX-CJR-001, anaerobic): 25% | % Increase Over Control ([2]; strain YX-CJR-015 (pyes2.1-RNR1) vs YX-CJR-001, anaerobic): 25% | % Increase Over Control ([2]; strain YX-CJR-016 (pyes2.1-Aro3) vs YX-CJR-001, anaerobic): 25% | % Increase Over Control ([2]; strain YX-CJR-018 (pyes2.1-Tyr1) vs YX-CJR-001, anaerobic): 25% | % Increase Over Control ([2]; strain YX-CJR-021 (pYes2.1-Trp1) vs YX-CJR-001, anaerobic): 25% | % Increase Over Control ([3]; B. subtilis 168, M9 + glu + trp, supplements none (control)): 0% | % Increase Over Control [3, 6]: 0% | Avg 24 hr ΔOD600 [3, 6]: 0.00 | Avg 24 hr ΔOD600 ([3]; strain BSX_0011.0 (pWH1520-Pxyl:speB region), M9 + glu + trp + 1 mM Xylose): 0.07 | Avg 24 hr ΔOD600 ([3]; strain BSX_0015.0 (pWH1520-Pxyl:metE region), M9 + glu + trp + 1 mM Xylose): 0.06 | % Increase Over Control ([4]; C. necator DSM 542, EZ Rich media): 200% | % Increase Over Control ([4]; C. necator DSM 542, FGN media): 0% | MIC ([4]; read-out: average MIC Assay Result (g/L 3-HP), C. necator DSM428, FGN media, supplements none (control), aerobic): 15 g/L (≈ 167 mM) | MIC ([4]; read-out: average MIC Assay Result (g/L 3-HP), C. necator DSM 542, EZ Rich media, supplements none, aerobic): 60 g/L (≈ 666 mM) | MIC ([4]; read-out: average MIC Assay Result (g/L 3-HP), C. necator DSM 542, FGN media, supplements none, aerobic): 15 g/L (≈ 167 mM) | MIC [5]: 50 mg/mL (≈ 555 mM)
